Measured values as given in ChEMBL document CHEMBL1151440, “Safety and pharmacokinetics of GSK364735, a human immunodeficiency virus type 1 integrase inhibitor, following single and repeated administration in healthy adult subjects” (Antimicrob Agents Chemother, 2007).

How the values were obtained:
[1] = Apparent oral clearance in human at 200 mg administered with fat meal every 8 hrs for 8 days measured on day 1; type: ADME, organism-based; conditions: in vivo
[2] = Tmax in human at 50 mg administered with fat meal every 12 hrs for 8 days measured on day 8; type: ADME, organism-based; conditions: in vivo
Homo sapiens [3] = assay: Toxicity in human assessed as changes in hematology at 50 to 400 mg after sequential repeated administration for 8 days; type: organism-based; conditions: in vivo, 192 h
Homo sapiens [4] = assay: Toxicity in human assessed as changes in vital sign at 50 to 400 mg after sequential repeated administration for 8 days; type: organism-based; conditions: in vivo, 192 h
[5] = Apparent oral clearance in human at 200 mg administered with fat meal every 12 hrs for 8 days measured on day 8; type: ADME, organism-based; conditions: in vivo
[6] = Apparent oral clearance in human at 200 mg administered with fat meal every 8 hrs for 8 days measured on day 8; type: ADME, organism-based; conditions: in vivo
[7] = Cmax in human at 400 mg administered with fat meal as single dose; type: ADME, organism-based; parameters: dose 400 mg; conditions: in vivo
[8] = Apparent oral clearance in fasted human at 400 mg administered as single dose; type: ADME, organism-based; conditions: in vivo

CL/F [1]: 567 mL/min
Tmax [2]: 3.75 h
CL/F [5]: 350 mL/min
CL/F [6]: 683 mL/min
Cmax [7]: 840 ng/mL
CL/F [8]: 1020 mL/min
Compound: Cn1c(=O)c(C(=O)NCCO)c(O)c2ncc(Cc3ccc(F)cc3)cc21 [GSK-364735]
Activity (Homo sapiens [3]): Non-toxic
Activity (Homo sapiens [4]): Non-toxic
